For four compounds, mutagenic call results are on record in PubChem BioAssay AID1259407 (Chemical Carcinogenesis Research Information System (CCRIS), 2018).

SMILES strings stand for the structures. Calls of active or inactive are those of the source. How the calls were made is not given here.

The subject of this data set is CCRIS mutagenicity, Ames/micronucleus/aberration tests. Kind of data set: CCRIS mutagenicity studies.
[1] abbreviates: Test System: AMES SALMONELLA TYPHIMURIUM, Strain/Indicator: TA100, Metabolic Activation: NONE, Method: STANDARD PLATE.

Regarding `Nc1ccc(Cl)c(N)c1`, the mutagenic call (End Point: IN VITRO CHROMOSOMAL ABERRATIONS, Test System: CHL CELLS, Metabolic Activation: RAT, LIVER, S-9, SODIUM PHENOBARBITAL AND 5,6-BENZOFLAVONE) was “active; positive (structural changes)”; the mutagenic call (End Point: IN VITRO CHROMOSOMAL ABERRATIONS, Test System: CHO-LB CELLS, Metabolic Activation: RAT, LIVER, S-9, AROCLOR 1254) was “inactive; negative”; the mutagenic call (Test System: AMES SALMONELLA TYPHIMURIUM, Strain/Indicator: TA98, Metabolic Activation: HAMSTER, LIVER, S-9, AROCLOR 1254, Method: STANDARD PLATE) is “active; positive”; the mutagenic call (Test System: AMES SALMONELLA TYPHIMURIUM, Strain/Indicator: TA98, Metabolic Activation: HAMSTER, LIVER, S-9, Method: STANDARD PLATE) is “active; positive”; the mutagenic call (Test System: AMES SALMONELLA TYPHIMURIUM, Strain/Indicator: TA98, Metabolic Activation: MOUSE, LIVER, S-9, AROCLOR 1254, Method: STANDARD PLATE) was “active; positive”; the mutagenic call (Test System: AMES SALMONELLA TYPHIMURIUM, Strain/Indicator: TA98, Metabolic Activation: MOUSE, LIVER, S-9, Method: STANDARD PLATE) was “active; positive”. The mutagenic call (Test System: AMES SALMONELLA TYPHIMURIUM, Strain/Indicator: TA98, Metabolic Activation: RAT, LIVER, S-9, AROCLOR 1254, Method: STANDARD PLATE) is “active; positive”; the mutagenic call (Test System: AMES SALMONELLA TYPHIMURIUM, Strain/Indicator: TA98, Metabolic Activation: RAT, LIVER, S-9, Method: STANDARD PLATE) was “active; positive”; the mutagenic call (Test System: AMES SALMONELLA TYPHIMURIUM, Strain/Indicator: TA100, Metabolic Activation: HAMSTER, LIVER, S-9, AROCLOR 1254, Method: STANDARD PLATE) is “active; positive”; the mutagenic call under setting [1] is “inactive; negative”; the mutagenic call (Test System: AMES SALMONELLA TYPHIMURIUM, Strain/Indicator: TA100, Metabolic Activation: RAT, LIVER, S-9, AROCLOR 1254, Method: STANDARD PLATE) is “active; positive”; the mutagenic call (Test System: AMES SALMONELLA TYPHIMURIUM, Strain/Indicator: TA1535, Metabolic Activation: HAMSTER, LIVER, S-9, AROCLOR 1254, Method: STANDARD PLATE) is “inactive; negative”. The mutagenic call is “inactive; negative” (Test System: AMES SALMONELLA TYPHIMURIUM, Strain/Indicator: TA1535, Metabolic Activation: HAMSTER, LIVER, S-9, Method: STANDARD PLATE); “inactive; negative” (Test System: AMES SALMONELLA TYPHIMURIUM, Strain/Indicator: TA1535, Metabolic Activation: MOUSE, LIVER, S-9, AROCLOR 1254, Method: STANDARD PLATE); “inactive; negative” (Test System: AMES SALMONELLA TYPHIMURIUM, Strain/Indicator: TA1535, Metabolic Activation: MOUSE, LIVER, S-9, Method: STANDARD PLATE); “inactive; negative” (Test System: AMES SALMONELLA TYPHIMURIUM, Strain/Indicator: TA1535, Metabolic Activation: NONE, Method: STANDARD PLATE); “inactive; negative” (Test System: AMES SALMONELLA TYPHIMURIUM, Strain/Indicator: TA1535, Metabolic Activation: RAT, LIVER, S-9, Method: STANDARD PLATE); “active; positive” (Test System: AMES SALMONELLA TYPHIMURIUM, Strain/Indicator: TA1537, Metabolic Activation: HAMSTER, LIVER, S-9, AROCLOR 1254, Method: STANDARD PLATE). Moreover, the mutagenic call (Test System: AMES SALMONELLA TYPHIMURIUM, Strain/Indicator: TA1537, Metabolic Activation: HAMSTER, LIVER, S-9, Method: STANDARD PLATE) is “active; positive”; the mutagenic call (Test System: AMES SALMONELLA TYPHIMURIUM, Strain/Indicator: TA1537, Metabolic Activation: MOUSE, LIVER, S-9, AROCLOR 1254, Method: STANDARD PLATE) was “active; positive”; the mutagenic call (Test System: AMES SALMONELLA TYPHIMURIUM, Strain/Indicator: TA1537, Metabolic Activation: NONE, Method: STANDARD PLATE) is “inactive; negative”; the mutagenic call (Test System: AMES SALMONELLA TYPHIMURIUM, Strain/Indicator: TA1537, Metabolic Activation: RAT, LIVER, S-9, AROCLOR 1254, Method: STANDARD PLATE) is “active; positive”; the mutagenic call (Test System: AMES SALMONELLA TYPHIMURIUM, Strain/Indicator: TA1537, Metabolic Activation: RAT, LIVER, S-9, Method: STANDARD PLATE) was “inactive; negative”; the mutagenic call (Test System: AMES SALMONELLA TYPHIMURIUM, Strain/Indicator: TA1538, Metabolic Activation: HAMSTER, LIVER, S-9, AROCLOR 1254, Method: STANDARD PLATE) is “active; positive”. For the same compound, the mutagenic call is “active; positive” (Test System: AMES SALMONELLA TYPHIMURIUM, Strain/Indicator: TA1538, Metabolic Activation: HAMSTER, LIVER, S-9, Method: STANDARD PLATE); “active; positive” (Test System: AMES SALMONELLA TYPHIMURIUM, Strain/Indicator: TA1538, Metabolic Activation: MOUSE, LIVER, S-9, AROCLOR 1254, Method: STANDARD PLATE); “active; positive” (Test System: AMES SALMONELLA TYPHIMURIUM, Strain/Indicator: TA1538, Metabolic Activation: MOUSE, LIVER, S-9, Method: STANDARD PLATE); “active; positive” (Test System: AMES SALMONELLA TYPHIMURIUM, Strain/Indicator: TA1538, Metabolic Activation: RAT, LIVER, S-9, AROCLOR 1254, Method: STANDARD PLATE); “active; positive” (Test System: AMES SALMONELLA TYPHIMURIUM, Strain/Indicator: TA1538, Metabolic Activation: RAT, LIVER, S-9, Method: STANDARD PLATE); “inactive; negative” (Test System: E. COLI, Strain/Indicator: WP2 UVRA, Metabolic Activation: HAMSTER, LIVER, S-9, AROCLOR 1254, Method: STANDARD PLATE). Further, the mutagenic call (Test System: E. COLI, Strain/Indicator: WP2 UVRA, Metabolic Activation: HAMSTER, LIVER, S-9, Method: STANDARD PLATE) was “inactive; negative”; the mutagenic call (Test System: E. COLI, Strain/Indicator: WP2 UVRA, Metabolic Activation: MOUSE, LIVER, S-9, AROCLOR 1254, Method: STANDARD PLATE) is “inactive; negative”; the mutagenic call (Test System: E. COLI, Strain/Indicator: WP2 UVRA, Metabolic Activation: MOUSE, LIVER, S-9, Method: STANDARD PLATE) is “inactive; negative”; the mutagenic call (Test System: E. COLI, Strain/Indicator: WP2 UVRA, Metabolic Activation: NONE, Method: STANDARD PLATE) is “inactive; negative”; the mutagenic call (Test System: E. COLI, Strain/Indicator: WP2 UVRA, Metabolic Activation: RAT, LIVER, S-9, AROCLOR 1254, Method: STANDARD PLATE) is “inactive; negative”; the mutagenic call (Test System: E. COLI, Strain/Indicator: WP2 UVRA, Metabolic Activation: RAT, LIVER, S-9, Method: STANDARD PLATE) was “inactive; negative”.
Consider `OCCN1CCNCC1`, for which the mutagenic call reads like this: (Test System: AMES SALMONELLA TYPHIMURIUM, Strain/Indicator: TA98, Metabolic Activation: NONE, Method: PREINCUBATION) “inactive; negative”; (Test System: AMES SALMONELLA TYPHIMURIUM, Strain/Indicator: TA98, Metabolic Activation: RAT, LIVER, S-9, PCB, Method: PREINCUBATION) “inactive; negative”; (Test System: AMES SALMONELLA TYPHIMURIUM, Strain/Indicator: TA100, Metabolic Activation: NONE, Method: PREINCUBATION) “inactive; negative”; (Test System: AMES SALMONELLA TYPHIMURIUM, Strain/Indicator: TA100, Metabolic Activation: RAT, LIVER, S-9, PCB, Method: PREINCUBATION) “inactive; negative”.
In the case of `COC(=O)CN(N=O)C(N)=O`, the mutagenic call was “active; positive” (Test System: E. COLI B, Strain/Indicator: H/R30R, Metabolic Activation: NONE) and “active; positive” (Test System: E. COLI B, Strain/Indicator: HS30R, Metabolic Activation: NONE).
As for `Cc1ccc(/C=C/c2ccc([N+](=O)[O-])cc2)cc1`, the mutagenic call reads like this: (Test System: AMES SALMONELLA TYPHIMURIUM, Strain/Indicator: TA98 (NR), Metabolic Activation: NONE, Method: STANDARD PLATE) “inactive; negative”; (Test System: AMES SALMONELLA TYPHIMURIUM, Strain/Indicator: TA98 (NR), Metabolic Activation: S-9, Method: STANDARD PLATE) “active; positive”; (Test System: AMES SALMONELLA TYPHIMURIUM, Strain/Indicator: TA98, Metabolic Activation: NONE, Method: STANDARD PLATE) “active; positive”; (Test System: AMES SALMONELLA TYPHIMURIUM, Strain/Indicator: TA98, Metabolic Activation: RAT, LIVER, S-9, AROCLOR, Method: STANDARD PLATE) “active; positive”; (Test System: AMES SALMONELLA TYPHIMURIUM, Strain/Indicator: TA98, Metabolic Activation: S-9, Method: STANDARD PLATE) “active; positive”; (Test System: AMES SALMONELLA TYPHIMURIUM, Strain/Indicator: TA100 (NR), Metabolic Activation: NONE, Method: STANDARD PLATE) “inactive; negative”. In addition, the mutagenic call is “active; positive” (Test System: AMES SALMONELLA TYPHIMURIUM, Strain/Indicator: TA100 (NR), Metabolic Activation: S-9, Method: STANDARD PLATE); “active; positive” under setting [1]; “active; positive” (Test System: AMES SALMONELLA TYPHIMURIUM, Strain/Indicator: TA100, Metabolic Activation: RAT, LIVER, S-9, AROCLOR, Method: STANDARD PLATE); “active; positive” (Test System: AMES SALMONELLA TYPHIMURIUM, Strain/Indicator: TA100, Metabolic Activation: S-9, Method: STANDARD PLATE).
